Reference: patent US20150004100A1, “HETEROCYCLIC COMPOUNDS AS IMAGING PROBES OF TAU PATHOLOGY” (GE HEALTHCARE LIMITED, priority 2011, published 2015)
Entries after “also recorded” stand apart in the source; their conditions may differ.

Assays:
[1] = system: tau+ NFTs; assay: Tissue binding assay (fluorescence), NFTs in human AD tissue sections; set-up: key to NFTs (staining): −: No staining; +: weak staining; ++: moderate staining; +++: intense staining; conditions: for NFTs (staining): 100 μM, human AD tissue
Description: (§1) Human brain tissue samples from the entorhinal cortex of patients with Alzheimer's disease (AD) and healthy controls were obtained from Tissue Solutions (Tissue Solutions Ltd, Glasgow, UK). Tissue samples were collected after informed written consent, and specimens were dissected at the tissue bank and snap-frozen for cryopreservation at a time interval of between 3 and 18 h after death. The frozen tissue was embedded in TissueTek® (VWR) and sectioned using a Microm HM560 cryostat (Thermo Scientific). Serial 12 μm sections were mounted onto SuperFrost®+ glass slides (VWR) and stored a −70° C.
(§2) The binding of compounds to tau+NFTs and Aβ+ plaques in human AD tissue were evaluated based on fluorescence.
(§3) Briefly, tissue sections were defrosted and fixed in ice-cold 70% ethanol. All tissue sections were rinsed with PBS after fixation and between all subsequent incubation steps. To quench autofluorescence, tissue sections were incubated first with 0.25% KMnO4 (Sigma-Aldrich) in PBS for 12 min, and then with 0.1% […]/0.1% oxalic acid (both reagents from Sigma-Aldrich) in PBS for 1 min. The tissue sections were blocked with 2% BSA in PBS for 10 min, and then incubated with the test compounds at 100 μM concentration for 1 h at RT. […] Finally the tissue sections were rinsed in PBS, and mounted in SlowFade® mounting media (Invitrogen). Images of labelled tissue sections were captured using a Nikon digital camera connected to a Leica microscope and using the NIS Elements D software (Nikon). Images were further processed with the Photoshop® software (Adobe).

[2] = system: Aβ+ plaques; assay: Tissue binding assay (fluorescence), plaques in human AD tissue sections; set-up: key to Plaques (staining): −: No staining; +: weak staining; ++: moderate staining; +++: intense staining; conditions: human AD tissue
[3] = system: Aβ+ plaques; assay: as above; set-up: key to Plaques (staining): −: No staining; +: weak staining; ++: moderate staining; +++: intense staining; conditions: for Plaques (staining): 100 μM, human AD tissue
Description: as §1, §2, §3

[4] = In vivo cold bio-distribution in rat (brain uptake, LC-MS); conditions: for tissue uptake at 2 min / tissue uptake at 10 min / tissue uptake at 30 min / tissue uptake at 60 min: male, Wistar, brain, iv, 50 μg/rat; for tissue uptake at 10 min: 10 min p.i.; for tissue uptake at 30 min: 30 min p.i.; for tissue uptake at 60 min: 60 min p.i.; for Clearance ratio 2:30 min: rat brain, 2 min vs 30 min p.i.
Description: All animal studies were in compliance with local rules and regulations. Test compounds were administered by intravenous (i.v) injection through the tail vein of naïve male Wistar rats (50 μg test compound/rat). The animals were sacrificed by dislocation of the neck at 2, 10, 30, 60 min post-injection (p.i). The brain and plasma were collected from each animal. The concentration of test compound was measured in the plasma and brain homogenates using LS-MS, and calculated as % compound/g (% ID/g).

[5] = system: human liver microsomes; assay: Liver microsome stability assay, human; format: in vitro ADME; conditions: 1 μM, 37° C., parent compound remaining, criterion >50%
Description: (§4) The liver microsome stability assay provides an estimate of compound stability and rate of metabolism in vivo. The desirable criterion for this assay is >50% parent compound after 30 min.
(§5) A 1 μM compound solution was incubated with rat or human liver microsomes (20 mg/ml) at 37° C. and the amount of parent compound remaining following the incubation was determined after 5 and 30 min of incubation using LC-MS.

[6] = Protein binding assay, rat brain homogenates (rapid equilibrium dialysis); format: in vitro ADME; conditions: rat brain homogenate, % bound, criterion <99%
Description: (§6) The protein binding assays provide an estimate of free (unbound) fraction of the compound in the blood or brain in vivo. […] The desirable criterion for this assay is <99% of test compound bound.
(§7) Test compounds were first dissolved in DMSO to a concentration of 50 μM. This was followed by incubation in samples of human plasma and rat brain homogenates (final test concentration 1 μM). Binding of compounds to proteins was determined in the samples by rapid equilibrium dialysis after 5 and 30 min of incubation.

[7] = Protein binding assay, human plasma (rapid equilibrium dialysis); format: in vitro ADME; conditions: % bound, criterion <99%
Description: as §6, §7

[8] = PAMPA (parallel artificial membrane permeability assay); format: in vitro ADME; conditions: 10 μM, 5 h at RT; criterion >−6
Description: The PAMPA assay is used to determine how well a compound crosses a cell membrane by measuring its passage through a phosphotidyl choline barrier. A permeability coefficient >−6 indicates high permeability across lipid membranes and is indicative of a compounds ability to cross the blood brain barrier.
A 10 μM solution was incubated on a PDVF membrane coated with a 2% phoshotidyl choline solution for 5 h at RT. Membrane penetration was measured using LC-MS.

[9] = system: rat liver microsomes; assay: Liver microsome stability assay, rat; format: in vitro ADME; conditions: 1 μM, 37° C., parent compound remaining, criterion >50%
Description: as §4, §5

[10] = system: tau+ NFTs; assay: Tissue binding assay (fluorescence), NFTs in human AD tissue sections; set-up: key to NFTs (staining): −: No staining; +: weak staining; ++: moderate staining; +++: intense staining; conditions: for NFTs (staining): Table 2, human AD tissue
[11] = high test concentration, AD tissue

Row | SMILES | NFTs (staining) ([1]; Table 3) | Plaques (staining) ([3]; Table 3) | Liver stability Human (% PCP) 5 min [5] [% PCP] | Liver stability Human (% PCP) 30 min [5] [% PCP] | fraction unbound at 1 μM [6] | fraction unbound at 1 μM [7] | PAMPA Log Pe [8] | Liver stability Rat (% PCP) 5 min [9] [% PCP] | Liver stability Rat (% PCP) 30 min [9] [% PCP] | also measured
1 | COc1ccc(-n2nc(C(=O)NC(C)C)c3csc(N(C)C)c3c2=O)cc1 [Compound 82] |  |  |  |  |  |  |  |  |  | NFTs (staining) ([1]; Table 2): +; Plaques (staining) ([2]; Table 2, 1 μM): −; Plaques (staining) ([2]; Table 2, 10 μM): −; Plaques (staining) ([3]; Table 2): ++
2 | CC(C)NC(=O)c1nn(-c2ccc(O)cc2)c(=O)c2c(NC(=O)OC(C)(C)C)scc12 [Compound 63] |  |  |  |  |  |  |  |  |  | NFTs (staining) ([1]; Table 2): −
3 | COc1ccc(-n2nc(C(=O)N3CCN(c4cccc(F)n4)CC3)c3csc(NC(=O)OC(C)(C)C)c3c2=O)cc1 [Compound 91] |  |  |  |  |  |  |  |  |  | NFTs (staining) ([1]; Table 2): −; Plaques (staining) ([3]; Table 2): −
4 | CC(C)NC(=O)c1nn(-c2ccc(OCCCF)cc2)c(=O)c2c(N)scc12 [Compound 61] |  |  |  |  |  |  |  |  |  | NFTs (staining) ([1]; Table 4): −; Plaques (staining) ([3]; Table 4): −
5 | COc1ccc(-n2nc(C(=O)NCCF)c3csc(N)c3c2=O)cc1 [Compound 106] |  | − |  |  |  |  |  |  |  | tissue uptake at 2 min ([4]; rat, 2 min p.i.): 0.014 %ID/g; tissue uptake at 10 min ([4]; rat): 0.001 %ID/g; tissue uptake at 30 min ([4]; rat): 0.004 %ID/g; tissue uptake at 60 min ([4]; rat): 0.001 %ID/g; Clearance ratio 2:30 min [4]: 3.5; Brain uptake (in words) ([4]; rat, cold bio-distribution): low brain uptake
6 | COc1ccc(-n2nc(C(=O)N3CCN(c4cccc(F)n4)CC3)c3csc(N)c3c2=O)cc1 [Compound 90] |  |  | 44.62 | 2.57 | 0.112 | 0.0084 | −5.51 | 72.67 | 53.0 | Plaques (staining) ([3]; Table 2): −
7 | COc1ccc(-n2nc(C(=O)N3CCN(c4ccc(F)nc4)CC3)c3csc(N)c3c2=O)cc1 [Compound 67] | − | − |  |  |  |  |  |  |  | 
8 | CC(C)NC(=O)c1nn(-c2ccc(OCC(O)CF)cc2)c(=O)c2c(N)scc12 (stereo not drawn) [Compound 59] |  |  |  |  |  |  |  |  |  | NFTs (staining) ([1]; Table 4): −; Plaques (staining) ([3]; Table 4): −
9 | CC(C)(C)OC(=O)c1nn(-c2ccc(OCCF)cc2)c(=O)c2c(N)scc12 [Compound 104] |  |  |  |  |  |  |  |  |  | NFTs (staining) ([1]; Table 4): −; Plaques (staining) ([3]; Table 4): −
10 | COc1ccc(-n2nc(C(=O)N3CCC(CF)CC3)c3csc(N)c3c2=O)cc1.Cl [Compound 81] |  | − | 91.63 | 73.10 | 0.589 | 0.0498 | −5.12 | 60.12 | 32.54 | 
11 | COc1ccc(-n2nc(C(=O)N3CCC(CCF)CC3)c3csc(N)c3c2=O)cc1 [Compound 56] | − | − | 80.98 | 52.10 | 0.448 | 0.0372 | −5.16 | 94.88 | 92.06 | 
12 | COc1ccc(-n2nc(C(=O)N3CC[C@@H](F)C3)c3csc(N)c3c2=O)cc1 [Compound 107] | − | + |  |  |  |  |  |  |  | Plaques (staining) ([2]; Table 3, 1 μM): −; Plaques (staining) ([2]; Table 3, 10 μM): −
13 | COc1ccc(-n2nc(NCCF)c3csc(N)c3c2=O)cc1 [Compound 99] |  |  |  |  |  |  |  |  |  | tissue uptake at 2 min ([4]; rat, 2 min p.i.): > 0.2 %ID/g; tissue uptake at 10 min ([4]; rat): 0.092 %ID/g; tissue uptake at 30 min ([4]; rat): 0.013 %ID/g; tissue uptake at 60 min ([4]; rat): 0.001 %ID/g; Clearance ratio 2:30 min [4]: 23.8; Brain uptake and clearance (in words) ([4]; rat, from clearance ratio): rapid brain uptake followed by rapid clearance; Brain uptake % ID/g p.i ([4]; rat, i.v., 2 min p.i.): 0.31 % ID/g
14 | COc1ccc(-n2nc(C(=O)N3CC[C@H](F)C3)c3csc(N)c3c2=O)cc1 [Compound 108] | − | − |  |  |  |  |  |  |  | 

More lines, main results first:

Row | NFTs (staining) ([1]; Table 3) | Plaques (staining) ([3]; Table 3) | Liver stability Human (% PCP) 5 min [5] [% PCP] | Liver stability Human (% PCP) 30 min [5] [% PCP] | fraction unbound at 1 μM [6] | fraction unbound at 1 μM [7] | PAMPA Log Pe [8] | Liver stability Rat (% PCP) 5 min [9] [% PCP] | Liver stability Rat (% PCP) 30 min [9] [% PCP] | SMILES | also measured
15 | − | − |  |  |  |  |  |  |  | CNc1scc2c(C(=O)NC(C)C)nn(-c3ccc(OC)cc3)c(=O)c12 [Compound 87] | 
16 |  |  | 92.1 | 61.3 | 0.383 | 0.0522 | −4.89 | 92.8 | 64.0 | CC(C)NC(=O)c1nn(-c2ccc(F)cc2)c(=O)c2c(N)scc12 [Compound 14] | NFTs (staining) ([10]; 1 μM): −; NFTs (staining) ([10]; 10 μM): −; NFTs (staining) ([1]; Table 2): +; Plaques (staining) ([2]; Table 2, 1 μM): −; Plaques (staining) ([2]; Table 2, 10 μM): −; Plaques (staining) ([3]; Table 2): +
17 |  |  | 91.5 | 73.2 | 0.112 | 0.02 | −5.10 | 81.29 | 58.8 | CC(C)NC(=O)c1nn(-c2ccc([N+](=O)[O-])cc2)c(=O)c2c(N)scc12 [Compound 105] | NFTs (staining) ([10]; 1 μM): −; NFTs (staining) ([10]; 10 μM): +; Binding preference for NFTs (in words) ([10]; lower test concentrations, AD tissue): binds preferentially to NFTs; also recorded: bind with a preference for NFTs; NFTs (staining) ([1]; Table 2): ++; Binding to NFTs (in words) [1, 11]: binds to NFTs (C, D) and plaques (D); also recorded: bind to both NFTs and plaques; Plaques (staining) ([2]; Table 2, 10 μM): −; Plaques (staining) ([3]; Table 2): ++; Binding to plaques (in words) [3, 11]: binds to NFTs (C, D) and plaques (D); also recorded: bind to both NFTs and plaques
18 |  |  | 100.9 | 83.4 | 0.506 | 0.068 | −7.52 | 90.03 | 79.3 | CC(C)NC(=O)c1nn(-c2ccc(O)cc2)c(=O)c2c(N)scc12 [Compound 58] | 
19 | − | − |  |  |  |  |  |  |  | CC(C)NC(=O)c1nn(-c2ccc(OCCF)cc2)c(=O)c2c(NC(=O)OC(C)(C)C)scc12 [Compound 64] | 
